Results published in paper PMC5686179, “Phage display and selection of lanthipeptides on the carboxy-terminus of the gene-3 minor coat protein” (Nature Communications, 2017).
Ends that are not written are not given here.

Experiments:
human uPA = biological target: T1, human uPA (Homo sapiens, UniProt P00749); experiment: Inhibition of uPA catalytic activity, fluorogenic substrate; assay type: biochemical; conditions: PEP333 leader-core peptide, ProcM-modified; 1.5 nM human uPA; 50 µM Z-Gly-Gly-Arg 7-amido-4-methylcoumarin; 10 mM Tris-HCl pH 7.4, 5% DMSO; 25°C, 30 min; fluorescence 355/460 nm; experiment repeated three times; read-out: inhibitory constant Ki
T1 construct: purchased ProsPec enz-264-c
Method: Determination of inhibitory activit y of lanthipeptides
The inhibitory activities of ProcM-modified and non- modified anti-uPA peptides were determined as previously described2. In brief, 1.5 nM human uPA (ProsPec, # enz-264- c; purified by size exclusion chromatography) were incubated with 50 µM of the fluorogenic substrate Z-Gly-Gly-Arg 7 -am ido-4-methylcoumarin hydrochloride (Santa Cruz Biotechnology, # sc-208012) and different concentrations of anti-uPA peptides. Substrate and peptides were diluted in 10 mM Tris-HCl (pH 7.4), 150 mM NaCl, 10 mM MgCl2, 1 m M CaCl2, 0.1% (w v-1) BSA, 0.01% Triton X-100, 5% (v v-1) DMSO buff er. The uPA activity was measured by monitoring the change in fluorescence intensity after an incubation step at 25°C for 30 minutes (black 96 well plate with clear flat bottom, Corning CellBIND, # 3340; excitation at 355 nm, emission recorded at 460 nm, Tecan M200pro, […]). A […]
Anal ysis of phage-selected peptides by mass spectrometry
Samples were analyzed by FTMS using a Shimadzu UFLC system (Shimadzu, Den Bosch, The Netherlands) coupled on- line via the HESI interface with a LTQ–Orbitrap- XL mass spectrometer (Thermo Fisher Scientific., San Jose, CA). Samples were loaded onto an Acquity UPLC, BEH C18. 50 x 2.1mm, 1.7µM (Waters, Ireland). […]

streptavidin = experiment: ELISA for streptavidin binding of purified His6-tagged leader-core peptides; conditions: plates coated with 100 nM streptavidin; for streptavidin binding, effect of reducing conditions: 10 mM DTT vs non-reducing; for streptavidin binding, dependence on ProcM co-expression: peptide produced with or without ProcM, 1 h room temperature, anti-His detection
Method: Peptide candidates identified by phage display were produced and purified as leader-core peptides as described above. 384 well Maxisorp plates were coated with uPA or streptavidin (100 nM each) overnight at 4 °C. After washing and blocking the plates as described above, serial dilutions of the peptide preparations in PBST containing 0.5% (w v^−1) BSA (and 10 mM DTT for anti-streptavidin replicates) were added in duplicate, and plates incubated for 1 h at room temperature, shaking. Detection of bound peptides with AP-conjugated anti-His IgG was performed as described above.

[1] = test system: nisin-sensitive L. lactis NZ9000; experiment: Growth inhibition, filter-disc bioactivity assay (nisin); assay type: cell-based; conditions: NisA produced as C-terminal MBP fusion in E. coli with NisBC; 20 µM leader-core peptide, trypsin treated; 40 µl on filter disc
Description: (§1) MBP IEGR His6 leader core peptide
(§2) LctA-core […] NisA-core […]
(§3) ProcM enz yme NisBC enzymes […]
(§4) modified KGGSGVIHAbuIAHEANMNAWQFVFDhbAAS modified IDhbAIDhaLAAbuPGAKAbuGALMGANMKAbuAAbuAHASIHVDhaK […]
(§5) 1: PBS + trypsin 1: PBS + trypsin
(§6) 2: Authentic lacticin 481 2: Authentic Nisin
(§7) 3: MBP_His6_P roc A 3. 3-LctA + trypsin 3: MBP_His6_NisA + trypsin
(§8) 4: MBP_His6_P roc A 3. 3-Lc tA + ProcM + trypsin 4: MBP_His6_NisA + NisBC + trypsin
(§9) Supplementary Figure 3 Bioactivit y assay of lanthipeptides produced as C-term inal fusions to MBP.
(§10) (a) Schem atic drawing of the MBP-fusion vector used for expression of a chim eric peptide consisting of the ProcA3.3 leader sequence fused to the core of LctA (left panel) and NisA (right panel; full sequences shown in Supplem entary Table 5). The sequence of the unm odified and m odified core peptides as reported in the literature are indicated1. The arrow indicates a tr ypsin cleavage site used to release the m ature core peptide. (b) Growth inhibition of lacticin 481- sensitive L. lactis cremonis (HP) by filter- disc spotted peptide solutions. (1) Trypsin treated PBS (negative control); (2) authentic lacticin 481 (positive control); (3) ProcA3.3-LctA produced as C-term inal MBP fusion in E. coli without ProcM co- expression and treated with tr yps in; (4) ProcA3.3- LctA produced as C-term inal MBP fusion in E. coli with ProcM co-ex pression and treated with tr ypsin. […]

[2] = test system: lacticin 481-sensitive L. lactis cremonis (HP); experiment: Growth inhibition, filter-disc bioactivity assay (lacticin 481); assay type: cell-based, L. lactis subsp. cremonis (HP); conditions: ProcA3.3-LctA produced as C-terminal MBP fusion in E. coli with ProcM; 20 µM leader-core peptide, trypsin treated; 40 µl on filter disc
Description: as §1, §2, §3, §4, §5, §6, §7, §8, §9, §10

AICQIADATRTGENRKCLAAGPHHHHHH (also: sidechain bridge or staple (positions not given here)) [PEP333]
Ki (human uPA): 564 nM

ANCIQHLTHSPTVHKYFCPAAGPHHHHHH (also: bicyclic or more (positions not given here)) [PEP331]
streptavidin binding, effect of reducing conditions (streptavidin): only a slight reduction in binding was noticed in a reducing environment | streptavidin binding, dependence on ProcM co-expression (streptavidin): strictly dependent on post-translational modifications introduced by ProcM

IDhbAIDhaLAAbuPGAKAbuGALMGANMKAbuAAbuAHASIHVDhaK (bicyclic or more) [nisin, antimicrobial lantibiotic, expressed as C-terminal MBP fusion with NisBC]
antimicrobial activity [1]: confirmed their antimicrobial activity

KGGSGVIHAbuIAHEANMNAWQFVFDhbAAS (bicyclic or more) [lacticin 481]
antimicrobial activity [2]: confirmed their antimicrobial activity

TNCGRKMSATYSGQKMYCIAAGPHHHHHH (also: bicyclic or more (positions not given here)) [PEP330]
streptavidin binding, effect of reducing conditions (streptavidin): reducing conditions had only minor effects | streptavidin binding, dependence on ProcM co-expression (streptavidin): bound streptavidin regardless of ProcM co-expression
